Structures can show the parent of a compound that is named as a salt.
What was measured:
[1] = target: T1, human PR3 (Homo sapiens, UniProt P24158); experiment: Inhibition of NE680 cleavage by human PR3; type: biochemical; details: NE680 0.5 μM as substrate; 30 min preincubation of enzyme with inhibitor, room temperature; read-out: IC50 on NE680 activation by human PR3
T1 construct: human neutrophil PR3 from Athens Research and Technology (Athens, GA); purchased Athens Research and Technology (Athens, GA); host or cells: human neutrophils
T1 sequence (P24158 28-256): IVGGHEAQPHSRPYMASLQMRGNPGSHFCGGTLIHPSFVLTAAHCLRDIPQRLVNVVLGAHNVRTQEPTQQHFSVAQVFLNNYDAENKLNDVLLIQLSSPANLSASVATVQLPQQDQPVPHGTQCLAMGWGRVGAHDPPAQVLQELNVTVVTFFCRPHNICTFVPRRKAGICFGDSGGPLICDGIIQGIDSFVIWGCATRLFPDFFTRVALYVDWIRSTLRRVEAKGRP
Method: Activation and protease selectivity of NE680 were determined with NE and closely related enzymes including PR3, Cat G, Cat B, and MMP-9. The assays were performed with 0.05 μM of enzyme and 0.5 μM NE680 in the optimized buffer and pH for each enzyme. Human NE was purchased from Innovative Research (Novi, MI), recombinant mouse NE, mouse Cat B, and active mouse Cat C from R and D Systems (Minneapolis, MN), human neutrophil PR3 from Athens Research and Technology (Athens, GA), and human neutrophil Cat G and recombinant human MMP-9 from BIOMOL International (Plymouth Meeting, PA). […] All the reactions were monitored at various time points at excitation/emission wavelengths of 663/690 nm with a cutoff at 665 nm using a fluorescence plate reader (Molecular Devices, San Leandro, CA). The released fluorescence is shown after subtracting background fluorescence of the agent without enzyme.
The IC50 against human NE and human PR3 were determined as described above using NE680 (0.5 μM). […]

[2] = target: T2, NE (Mus musculus, UniProt Q3UP87); experiment: NE680 activation ex vivo in lung sections; details: 1 μM NE680, 37°C, 5 h
T2 construct: from tissue; host or cells: lung of LPS/fMLP-challenged CD-1 mice (frozen sections or in vivo)
T2 sequence (Q3UP87 27-265): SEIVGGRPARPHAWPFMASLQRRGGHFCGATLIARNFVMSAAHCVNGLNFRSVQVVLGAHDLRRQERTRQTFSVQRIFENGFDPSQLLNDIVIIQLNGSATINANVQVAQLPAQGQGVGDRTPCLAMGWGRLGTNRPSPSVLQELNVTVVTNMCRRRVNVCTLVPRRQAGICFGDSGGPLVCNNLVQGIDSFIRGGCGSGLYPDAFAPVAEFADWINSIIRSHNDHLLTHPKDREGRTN
From the text: To validate the specificity of NE680 activation by NE present in lungs, mice with lung inflammation and control healthy mice (which had not received NE680) were euthanized by CO2 inhalation and lungs were removed and snap frozen in OCT. […] Fluorescence, as a measure of agent activation, was captured under fluorescence microscopy using appropriate filters (Zeiss Axioskop 2 MOT Plus). DAPI was used as a nuclear counterstain.

[3] = target: T2, NE; experiment: In vivo FMT imaging of NE680 activation in LPS/fMLP acute lung injury
From the text: Acute lung inflammation was induced in mice according to published protocols with slight modifications. Male CD-1 mice were purchased from Charles River Laboratories (Wilmington, MA) and used when they reached 8–10 weeks of age. Mice were housed in environmentally controlled specific-pathogen-free conditions with water and low-fluorescence mouse chow (Harlan Teklad, Madison, WI). All animal experimental procedures were approved by PerkinElmer's Institutional Animal Care and Use Committee and were in accordance with veterinarian requirements. On day 1, mice were challenged intranasally (i.n.) with 100 μg of LPS (E. coli 111 : B4, Sigma, St. Louis, MO) solubilized in 40 μL PBS or PBS only. Eighteen hours later, mice received an intranasal instillation of the chemotactic peptide N-formyl-met-leu-phe (fMLP, Sigma, St. Louis, MO) at 200 nM in 40 μL PBS together with 4 nmoles of NE680.
For in vivo imaging, mice were first depilated using Nair and placed in a fluorescence molecular tomography (FMT) 2500 system (PerkinElmer, Boston, MA) imaging chamber to which is delivered a controlled amount of isoflurane/oxygen mixture keeping the mice anesthetized. Three-dimensional regions of interest (ROIs) were drawn around the chest area applying a universal threshold, equal to 40% of the mean concentration value of fluorescence in the LPS/fMLP mice (in nM). The total amount (in picomole) of fluorochrome was automatically calculated relative to internal standards generated with known concentrations of the appropriate fluorochrome. For each study, the mean fluorescence of the LPS/fMLP group was equaled to 100%, and then each mouse in that study was normalized accordingly. Shown are the grouped results of 3 studies, as the percentage of LPS/fMLP Lung Fluorescence (means ± S.E.M.).

[4] = tested on: neutrophil influx; experiment: Lung histology (H and E) after in vivo imaging, neutrophil influx; set-up: species or system mouse; details: single treatment 5 mg/kg i.n. 18 h after LPS; H and E sections
[5] = tested on: mouse NE; experiment: In vitro activation and protease selectivity of NE680 (mouse NE versus related enzymes); type: biochemical; details: at 5 h, 0.5 μM NE680, 0.05 μM enzyme, room temperature, optimized buffer for each enzyme
Method: Activation and protease selectivity of NE680 were determined with NE and closely related enzymes including PR3, Cat G, Cat B, and MMP-9. The assays were performed with 0.05 μM of enzyme and 0.5 μM NE680 in the optimized buffer and pH for each enzyme. Human NE was purchased from Innovative Research (Novi, MI), recombinant mouse NE, mouse Cat B, and active mouse Cat C from R and D Systems (Minneapolis, MN), human neutrophil PR3 from Athens Research and Technology (Athens, GA), and human neutrophil Cat G and recombinant human MMP-9 from BIOMOL International (Plymouth Meeting, PA). The reaction buffers were as follows: for human NE, 100 mM Tris (pH 7.5); for mouse NE, 50 mM Tris (pH 7.5), 1 M NaCl, 0.05% Brij-35; for Cat B, 25 mM MES (pH 5.0), 0.5 mM DTT (preactivation in 25 mM MES pH 5.0, 5 mM DTT for 15 min at room temperature); for MMP-9, 50 mM Tris (pH 7.5), 10 mM CaCl2, 150 mM NaCl, 0.05% Brij 35; for Cat G, 100 mM Tris (pH 7.5), 1.6 M NaCl; for human PR3, 100 mM Tris (pH 7.5), 500 mM NaCl. Mouse NE was activated by active mouse Cat C in 50 mM MES, 50 mM NaCl, pH5.5 at 37°C for 2 h. Reactions were carried out at room temperature in 250 μL in 96 well plates with black sides and bottom. All the reactions were monitored at various time points at excitation/emission wavelengths of 663/690 nm with a cutoff at 665 nm using a fluorescence plate reader (Molecular Devices, San Leandro, CA). The released fluorescence is shown after subtracting background fluorescence of the agent without enzyme.

[6] = Mouse plasma stability; type: in vitro ADME; details: normal mouse plasma diluted 1:4 in PBS pH 7.40 with 1 mM EDTA, 37°C, 24 h; HPLC; data not shown
Method: The agent was incubated in normal mouse plasma (Innovative Research, Novi, MI) diluted 1 : 4 in PBS, pH 7.40 with 1 mM EDTA, at 37°C for 24 h. The stability of the agent was analyzed by HPLC.
HPLC analyses were performed on a Waters model 2695 (Waters Corporation, Milford, MA). The PDA, Waters model 2998, was set to scan from 225 nm to 800 nm. The wavelength corresponding to the absorbance maximum of the fluorophore, 675 nm, was extracted from the PDA trace. The fluorescence spectrophotometer was set to an excitation wavelength of 675 nm and emission was monitored at 693 nm. Samples were analyzed on a C4, 300 Å, 5 μm, 150 × 4.6 mm HPLC column (Phenomenex, Torrance, CA). The aqueous mobile phase contained 25 mM ammonium formate, pH 8.5. Samples were eluted with acetonitrile at a flow rate of 1 mL/min. A gradient of 15% to 85% organic provided sufficient resolution. Standards were prepared with NE680 (0–2.5 μM) in mouse plasma. Standard curves had correlation coefficients >0.98.

[7] = Pharmacokinetics in CD-1 mice after i.v. injection; type: in vivo, mouse; details: female CD-1 mice, 2 nmol i.v. bolus in PBS, n = 3 mice per time point, HPLC of plasma; data not shown
Method: Twenty-four female retired breeder CD-1 mice (age 12–16 weeks, Charles River Laboratories, Wilmington, MA) received a bolus intravenous (i.v.) injection of NE680 (2 nmol in PBS). Terminal blood samples (n = 3 mice per time point) were collected by cardiac puncture from each mouse (following carbon dioxide asphyxiation). Plasma was collected by centrifugation (15,000 rpm for 10 min at 4°C) in EDTA-containing tubes. Aliquots (50 μL) of each plasma sample were placed in Eppendorf tubes. Cold methanol (150 μL) was added and the tubes were vortexed followed by centrifugation at 12,000 rpm and 4°C for 10 minutes. Approximately 110 μL of the supernatants were transferred to HPLC vials for analysis. Studies were conducted in accordance with and approved by PerkinElmer's IACUC Institutional Animal Care and Use Committee guidelines.
HPLC analyses were performed on a Waters model 2695 (Waters Corporation, Milford, MA). The PDA, Waters model 2998, was set to scan from 225 nm to 800 nm. The wavelength corresponding to the absorbance maximum of the fluorophore, 675 nm, was extracted from the PDA trace. The fluorescence spectrophotometer was set to an excitation wavelength of 675 nm and emission was monitored at 693 nm. Samples were analyzed on a C4, 300 Å, 5 μm, 150 × 4.6 mm HPLC column (Phenomenex, Torrance, CA). The aqueous mobile phase contained 25 mM ammonium formate, pH 8.5. […]

[8] = Fluorescence biodistribution in excised organs; type: in vivo, mouse; details: organs excised from 3 LPS/fMLP mice immediately after imaging, reflectance mode, mean fluorescence counts/energy
Method: Immediately following imaging, a cohort of mice were sacrificed (n = 3 per group), organs excised, and imaged in reflectance mode using the FMT 2500. The mean fluorescence intensity was measured after drawing an ROI around each organ. Data are expressed as mean fluorescence (in counts/energy) reported as means ± S.E.M.

[9] = 10 μm frozen sections, fluorescence microscopy

Row | Molecule | IC50 [1] [nM] | suppression of NE680 activation in ALI lung sections ([2]; sivelestat 40 nM) | suppression of NE680 activation in ALI lung sections ([2]; sivelestat 0.4 and 4 μM) | median concentration of lung fluorescence ([3]; ALI mice treated with sivelestat 5 mg/kg i.n. 15 min before fMLP and NE680, n = 12) [nM] | lung fluorescence as percentage of LPS/fMLP group ([3]; ALI mice treated with sivelestat 5 mg/kg i.n. 15 min before fMLP and NE680, mean ± S.E.M., n = 12, P = 0.0144) [%] | effect on neutrophil influx into the lung [4] | cleavage by mouse NE relative to Cat G ([5]; human Cat G) [fold] | cleavage by mouse NE relative to MMP-9 ([5]; human MMP-9) [fold] | cleavage by mouse NE relative to Cat B ([5]; mouse Cat B) | stability in mouse plasma [6] | half-life in plasma (t 1/2) [7] [h] | fluorescence (agent activation) in lung sections from control mice [2, 9] | fluorescence (agent activation) in lung sections from mice with ALI [2, 9] | average total fluorescence per lung ([3]; LPS/fMLP mice) | magnitude of signal in positive control animals across studies ([3]; LPS/fMLP mice, range between studies) | average total fluorescence per lung ([3]; control mice) [pmol fluorescence/lung] | median concentration of lung fluorescence ([3]; healthy controls, n = 12, 4 nmoles NE680 i.n., FMT 5 h later) [nM] | median concentration of lung fluorescence ([3]; mice with LPS/fMLP ALI, n = 16, 4 nmoles NE680 i.n., FMT 5 h later) [nM] | NE680 signal in lungs relative to all other tissues [8]
1 | CC(C)(C)C(=O)Oc1ccc(S(=O)(=O)Nc2ccccc2C(=O)NCC(=O)O)cc1 [sivelestat, N-{2-[({4-[(2,2-dimethylpropanoyl)oxy]phenyl}sulfonyl)amino]benzoyl} glycine sodium salt, reference compound] | 700 | significantly inhibited | almost completely blocking | 73 | 53.57 ± 10.34 | not inhibited | – | – | – | – | – | – | – | – | – | – | – | – | –
2 | PMAVVQSVP [NE680] | – | – | – | – | – | – | > 10 | > 30 | over 250 fold | optically stable and remains quenched | 3 | little or no apparent fluorescence | strong fluorescence | ~ 100 pmol fluorescence/lung | 30–190 pmols fluorescence/lung | < 5 | 0 | 164 | 30- to 170 fold

— article PMC3175392, “Noninvasive In Vivo Quantification of Neutrophil Elastase Activity in Acute Experimental Mouse Lung Injury” (International Journal of Molecular Imaging, 2011)
